Measurements taken from ChEMBL document CHEMBL1141030, “Synthesis and biological evaluation of phloridzin analogs as human concentrative nucleoside transporter 3 (hCNT3) inhibitors” (Bioorg Med Chem Lett, 2009).

How the values were obtained:
[1] = target: T1, Solute carrier family 28 member 3 (Homo sapiens, UniProt Q9HAS3); assay: Binding affinity to human recombinant CNT3 expressed in pig PK15NTD cells assessed as [3H]uridine uptake by beta-scintillation counter; type: cell-based
T1 sequence (Q9HAS3 whole entry): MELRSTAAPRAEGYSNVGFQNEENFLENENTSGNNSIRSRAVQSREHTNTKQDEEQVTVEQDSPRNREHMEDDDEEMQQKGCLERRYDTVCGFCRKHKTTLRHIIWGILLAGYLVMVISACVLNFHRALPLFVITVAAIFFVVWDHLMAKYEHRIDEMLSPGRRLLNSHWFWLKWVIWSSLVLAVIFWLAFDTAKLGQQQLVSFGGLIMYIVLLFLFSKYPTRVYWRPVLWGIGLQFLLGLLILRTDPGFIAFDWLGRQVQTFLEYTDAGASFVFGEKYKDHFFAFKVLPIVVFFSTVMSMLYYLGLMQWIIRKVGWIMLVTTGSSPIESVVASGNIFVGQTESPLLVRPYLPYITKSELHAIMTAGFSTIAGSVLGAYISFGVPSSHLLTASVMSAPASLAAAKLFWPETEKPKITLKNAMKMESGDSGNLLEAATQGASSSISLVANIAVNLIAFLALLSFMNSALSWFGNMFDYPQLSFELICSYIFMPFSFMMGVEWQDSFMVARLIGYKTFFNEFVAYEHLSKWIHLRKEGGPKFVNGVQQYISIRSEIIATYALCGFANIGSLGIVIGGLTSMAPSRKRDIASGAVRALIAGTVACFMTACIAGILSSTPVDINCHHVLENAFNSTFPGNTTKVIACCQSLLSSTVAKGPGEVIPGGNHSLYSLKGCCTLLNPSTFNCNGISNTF

[2] = target: T2, Equilibrative nucleoside transporter 1 (Homo sapiens, UniProt Q99808); assay: Binding affinity to human ENT1 assessed as [3H]uridine uptake by flow cytometry
T2 sequence (Q99808 whole entry): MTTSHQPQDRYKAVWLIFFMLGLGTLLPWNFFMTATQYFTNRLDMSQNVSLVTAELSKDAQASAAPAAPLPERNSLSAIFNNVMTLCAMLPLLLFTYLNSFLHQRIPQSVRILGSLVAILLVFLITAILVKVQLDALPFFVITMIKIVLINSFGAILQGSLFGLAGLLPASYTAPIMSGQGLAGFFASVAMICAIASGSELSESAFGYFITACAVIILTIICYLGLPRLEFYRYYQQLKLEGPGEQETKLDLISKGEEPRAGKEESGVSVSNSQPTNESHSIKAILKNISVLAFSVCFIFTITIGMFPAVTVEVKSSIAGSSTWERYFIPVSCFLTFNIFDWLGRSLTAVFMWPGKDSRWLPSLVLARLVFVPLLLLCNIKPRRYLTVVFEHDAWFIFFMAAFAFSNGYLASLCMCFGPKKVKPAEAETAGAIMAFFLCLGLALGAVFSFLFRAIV

[3] = target: T3, Sodium/nucleoside cotransporter 1 (Homo sapiens, UniProt O00337); assay: Inhibition of human CNT1
T3 sequence (O00337 whole entry): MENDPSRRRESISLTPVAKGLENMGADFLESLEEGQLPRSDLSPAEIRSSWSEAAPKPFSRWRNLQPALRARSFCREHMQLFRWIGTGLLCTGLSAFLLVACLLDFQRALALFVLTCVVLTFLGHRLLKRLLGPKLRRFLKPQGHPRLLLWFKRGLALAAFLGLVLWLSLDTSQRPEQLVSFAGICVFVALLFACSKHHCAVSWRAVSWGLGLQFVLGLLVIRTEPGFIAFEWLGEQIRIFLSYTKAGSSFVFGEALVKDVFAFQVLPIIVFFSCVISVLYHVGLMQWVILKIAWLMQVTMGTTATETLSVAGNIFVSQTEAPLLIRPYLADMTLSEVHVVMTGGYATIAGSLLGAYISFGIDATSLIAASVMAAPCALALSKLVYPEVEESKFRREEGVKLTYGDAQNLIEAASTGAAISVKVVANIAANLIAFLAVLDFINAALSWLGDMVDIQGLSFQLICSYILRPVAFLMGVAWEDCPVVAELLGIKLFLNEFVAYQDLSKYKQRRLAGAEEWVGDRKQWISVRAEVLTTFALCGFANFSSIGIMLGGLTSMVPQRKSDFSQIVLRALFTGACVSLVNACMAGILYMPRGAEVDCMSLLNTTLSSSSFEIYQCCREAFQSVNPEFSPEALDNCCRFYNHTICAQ

[4] = target: T4, Sodium/nucleoside cotransporter 2 (Homo sapiens, UniProt O43868); assay: Inhibition of human CNT2
T4 sequence (O43868 whole entry): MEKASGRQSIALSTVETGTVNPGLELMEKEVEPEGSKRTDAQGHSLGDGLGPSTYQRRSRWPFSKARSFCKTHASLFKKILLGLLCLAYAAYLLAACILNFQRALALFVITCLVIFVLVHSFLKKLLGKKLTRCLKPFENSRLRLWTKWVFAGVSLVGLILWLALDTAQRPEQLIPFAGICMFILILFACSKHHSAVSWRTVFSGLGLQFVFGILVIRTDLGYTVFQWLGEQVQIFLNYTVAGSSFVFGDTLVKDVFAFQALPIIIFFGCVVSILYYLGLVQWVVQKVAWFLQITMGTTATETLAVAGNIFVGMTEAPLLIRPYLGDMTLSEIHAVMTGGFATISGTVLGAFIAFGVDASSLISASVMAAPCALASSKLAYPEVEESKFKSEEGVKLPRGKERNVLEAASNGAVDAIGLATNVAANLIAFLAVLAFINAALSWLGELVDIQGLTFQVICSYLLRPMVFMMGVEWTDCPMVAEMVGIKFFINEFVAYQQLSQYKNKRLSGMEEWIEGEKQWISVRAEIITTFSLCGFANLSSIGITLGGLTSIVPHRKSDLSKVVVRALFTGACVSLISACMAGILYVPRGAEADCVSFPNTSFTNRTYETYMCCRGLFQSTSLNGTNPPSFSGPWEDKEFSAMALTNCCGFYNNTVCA

Compound | Ki [1] [µM] | other results
CC(=O)c1cc(O)cc(O)c1 | > 100 | 
O=C(CCc1ccccc1)c1ccccc1O[C@@H]1O[C@H](CO)[C@@H](O)[C@H]1O | > 100 | 
CC(=O)c1c(O)cc(O)cc1O [2,4,6-TRIHYDROXYACETOPHENONE] | > 100 | 
CC(=O)c1cc(O)cc(O[C@@H]2O[C@H](CO)[C@@H](O)[C@H]2O)c1 | > 100 | 
CC(=O)c1ccc(O[C@H]2O[C@H](CO)[C@@H](O)[C@H](O)[C@H]2O)cc1O | > 100 | 
CC(=O)c1ccc(O)cc1O | > 100 | 
CC(=O)c1cc(O)cc(O[C@H]2O[C@H](CO)[C@@H](O)[C@H](O)[C@H]2O)c1 | > 100 | 
CC(=O)c1c(O)cccc1O | > 100 | 

Second part, led by results:

Ki [1] [µM] | Compound | other results
> 100 | O=C(CCc1ccc(O)cc1)c1c(O)cc(O[C@@H]2O[C@H](CO)[C@@H](O)[C@H](O)[C@H]2O)cc1O | 
30.8 | CC(=O)c1c(O)cc(O)cc1O[C@H]1O[C@H](CO)[C@@H](O)[C@H](O)[C@H]1O | 
30 | Oc1ccc(CCCc2c(O)cc(O)cc2O)cc1 | 
12.3 | OC[C@H]1O[C@@H](Oc2cc(O)cc(O)c2CCCc2ccc(O)cc2)[C@H](O)[C@@H](O)[C@@H]1O | 
42.1 | CC(=O)c1c(O)cccc1O[C@@H]1O[C@H](CO)[C@@H](O)[C@H]1O | 
16 | O=C(CCc1ccc(O)cc1)c1c(O)cc(O)cc1O[C@@H]1O[C@H](CO)[C@@H](O)[C@H](O)[C@H]1O [PHLORIZIN] | Ki [2]: > 1000 µM; IC50 [3]: 250 µM; IC50 [4]: 100 µM
32.3 | O=C(CCc1ccc(O)cc1)c1c(O)cc(O)cc1O [PHLORETIN] | 
2.88 | O=C(CCc1ccc(O)cc1)c1c(O)cc(O)cc1O[C@@H]1O[C@H](CO)[C@@H](O)[C@H]1O | Ki [2]: > 1000 µM
88 | O=[N+]([O-])c1ccc(CSc2ncnc3c2ncn3[C@@H]2O[C@H](CO)[C@@H](O)[C@H]2O)cc1 [NITROBENZYLMERCAPTOPURINE RIBONUCLEOSIDE] | 
12.4 | CC(=O)c1c(O)cc(O)cc1O[C@@H]1O[C@H](CO)[C@@H](O)[C@H]1O | 
53.9 | CC(=O)c1c(O)cccc1O[C@H]1O[C@H](CO)[C@@H](O)[C@H](O)[C@H]1O | 
